According to ChEMBL document CHEMBL4373645, “Recent development of leucyl-tRNA synthetase inhibitors as antimicrobial agents” (Medchemcomm, 2019):
Converted amounts (≈) assume the structure as drawn.

Assays:
[1] = Selectivity index, ratio of IC50 for human cytoplasmic LeuRS to IC50 for Trypanosoma brucei LeuRS
[2] = Inhibition of human LeuRS after 10 mins in presence of [3H]leucine by scintillation counting method
[3] = Inhibition of Trypanosoma brucei LeuRS preincubated for 20 mins followed by ATP addition measured after 15 mins in presence of [14C]leucine by scintillation counting method
[4] = test system: Mycobacterium tuberculosis; assay: Antitubercular activity against Mycobacterium tuberculosis H37Rv by time-kill assay; type: functional
Streptococcus pneumoniae = assay: Antibacterial activity against Streptococcus pneumoniae assessed as the reduction in bacterial growth incubated for 24 hrs by dilution antimicrobial susceptibility test; type: functional
Trypanosoma brucei = assay: Inhibition of Trypanosoma brucei LeuRS assessed as residual activity at 100 uM incubated for 5 mins in presence of [14C]leucine by scintillation counting method relative to control
[5] = Inhibition of Trypanosoma brucei LeuRS presence of [14C]leucine by scintillation counting method
Leucine--tRNA ligase = Leucine--tRNA ligase (Escherichia coli (strain K12), UniProt P07813); assay: Binding affinity to Escherichia coli LeuRS
Chain of Leucine--tRNA ligase (P07813 whole entry): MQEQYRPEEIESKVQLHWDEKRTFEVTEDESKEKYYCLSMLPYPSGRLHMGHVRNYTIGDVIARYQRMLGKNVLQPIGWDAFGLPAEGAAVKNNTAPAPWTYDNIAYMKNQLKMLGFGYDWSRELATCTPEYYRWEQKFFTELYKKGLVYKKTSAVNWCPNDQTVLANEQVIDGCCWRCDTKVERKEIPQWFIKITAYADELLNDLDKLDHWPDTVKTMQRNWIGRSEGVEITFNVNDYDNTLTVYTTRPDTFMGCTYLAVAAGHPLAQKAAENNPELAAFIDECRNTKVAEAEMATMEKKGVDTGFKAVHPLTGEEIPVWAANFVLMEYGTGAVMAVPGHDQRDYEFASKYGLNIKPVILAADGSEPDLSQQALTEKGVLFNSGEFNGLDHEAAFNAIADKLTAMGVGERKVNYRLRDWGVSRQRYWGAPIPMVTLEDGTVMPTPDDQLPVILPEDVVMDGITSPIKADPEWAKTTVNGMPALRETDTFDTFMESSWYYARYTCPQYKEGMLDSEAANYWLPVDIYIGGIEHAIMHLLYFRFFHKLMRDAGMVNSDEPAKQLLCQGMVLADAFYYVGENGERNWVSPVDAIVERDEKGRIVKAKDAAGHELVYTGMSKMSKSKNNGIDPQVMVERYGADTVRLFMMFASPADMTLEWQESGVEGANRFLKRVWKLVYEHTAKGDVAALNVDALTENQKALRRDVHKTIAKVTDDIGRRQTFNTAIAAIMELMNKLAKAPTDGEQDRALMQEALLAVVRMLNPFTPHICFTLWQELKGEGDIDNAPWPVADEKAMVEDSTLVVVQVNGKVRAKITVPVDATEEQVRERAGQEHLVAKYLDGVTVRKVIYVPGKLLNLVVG

| SMILES | Ratio IC50 [1] | IC50 [2] [µM] | IC50 [3] [µM] | further results |
| --- | --- | --- | --- | --- |
| CC(C)C[C@H](N)C(=O)NS(=O)(=O)c1cccc(NC(=S)NC(=O)c2ccccc2)c1 | 4.5 to 7.3 | 55.5 | 7.6 |  |
| CC(C)C[C@H](N)C(=O)NS(=O)(=O)c1cccc(NC(=S)NC(=O)COc2ccc(Br)cc2Cl)c1 | 4.5 to 7.3 | 4.9 | 1.1 |  |
| CC(C)C[C@H](NC(=O)OCc1ccccc1)C(=O)NS(=O)(=O)c1cccc(NC(=S)NC(=O)COc2ccc(Br)cc2Cl)c1 |  |  | 16.7 |  |
| O=C(COc1ccc(Br)cc1Cl)NC(=S)Nc1cccc(S(=O)(=O)NC(=O)[C@H](Cc2ccccc2)NC(=O)OCc2ccccc2)c1 |  |  | 13.7 |  |
| COc1cccc(C(=O)NC(=S)Nc2cccc(S(=O)(=O)NC(=O)[C@@H](N)CC(C)C)c2)c1 | 4.5 to 7.3 | 40 | 6.7 |  |
| NCC1OB(O)c2ccccc21 (stereo not drawn) |  |  |  | MIC [4]: 1.8 µg/mL (≈ 11 µM) |
| NS(=O)(=O)c1ccc(NC(=S)NC(=O)COc2ccc(Br)cc2Cl)cc1 |  |  | 174 |  |
| OB1OCc2ccccc21 [BENZOXABOROLE] |  |  |  | MIC [4]: 7.5 µg/mL (≈ 56 µM) |
| COc1ccc(C(=O)NC(=S)Nc2cccc(S(=O)(=O)NC(=O)[C@@H](N)CC(C)C)c2)cc1 | 4.5 to 7.3 | 33.9 | 5.6 |  |
| OB1OCc2ccc(C(O)c3ccccc3)cc21 (stereo not drawn) |  |  |  | MIC (Streptococcus pneumoniae): 5 µg/mL (≈ 20.8 µM) |
| Cc1n[nH]c(=O)nc1Nc1cc(Cl)ccc1O |  |  |  | Activity (Trypanosoma brucei): 2.3%; IC50 [5]: 7.6 µM |
| Cc1cc(-c2cccc(S(=O)(=O)CC(=O)[C@@H](N)CC(C)C)c2)ncn1 |  |  |  | Kd (Leucine--tRNA ligase): 0.0014 µM |
| O=c1nc(Nc2cc(Cl)ccc2O)cn[nH]1 |  |  |  | Activity (Trypanosoma brucei): 18%; IC50 [5]: 7.2 µM |
